Test results from patent US8192962B2, “Processes for detecting toxic substances” (Daikin Industries, Ltd., priority 2001, dated 2012).

Test system: Metabolism protein genes
Assay: DNA chip mRNA expression in yeast, metabolism protein genes (Table 7)
Type: cell-based, Saccharomyces cerevisiae S288C
Method in brief: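 Values are treated/untreated fluorescence ratios from a whole-genome yeast DNA chip hybridized over 12 hours at 65° C with Cy3- or Cy5-labelled cDNA from poly(A) mRNA. Log-phase S288C yeast in YPD at 25° C had received a single toxic chemical for two hours, dosed to slow growth without killing.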

Na2As [(1)]
The level of expressed mRNA in the presence of chemical substance/The level of expressed mRNA in the absence of chemical substance (yeast gene YAL012W): 1.1
The level of expressed mRNA in the presence of chemical substance/The level of expressed mRNA in the absence of chemical substance (yeast gene YAL038W): 1.0
level of expressed mRNA in the presence/in the absence of chemical substance (yeast gene YBR003W): 0.9
level of expressed mRNA in the presence/in the absence of chemical substance (yeast gene YBR011C): 1.3
level of expressed mRNA in the presence/in the absence of chemical substance (yeast gene YBR020W): 1.0
The level of expressed mRNA in the presence of chemical substance/The level of expressed mRNA in the absence of chemical substance (yeast gene YBR023C): 0.5
The level of expressed mRNA in the presence of chemical substance/The level of expressed mRNA in the absence of chemical substance (yeast gene YBR029C): 0.7
The level of expressed mRNA in the presence of chemical substance/The level of expressed mRNA in the absence of chemical substance (yeast gene YBR183W): 1.8
The level of expressed mRNA in the presence of chemical substance/The level of expressed mRNA in the absence of chemical substance (yeast gene YBR222C): 0.6
The level of expressed mRNA in the presence of chemical substance/The level of expressed mRNA in the absence of chemical substance (yeast gene YBR256C): 3.0
The level of expressed mRNA in the presence of chemical substance/The level of expressed mRNA in the absence of chemical substance (yeast gene YCL009C): 0.6
The level of expressed mRNA in the presence of chemical substance/The level of expressed mRNA in the absence of chemical substance (yeast gene YCL064C): 0.6
level of expressed mRNA in the presence/in the absence of chemical substance (yeast gene YCR010C): 1.6
level of expressed mRNA in the presence/in the absence of chemical substance (yeast gene YCR034W): 0.8
The level of expressed mRNA in the presence of chemical substance/The level of expressed mRNA in the absence of chemical substance (yeast gene YCR048W): 0.5
The level of expressed mRNA in the presence of chemical substance/The level of expressed mRNA in the absence of chemical substance (yeast gene YCR098C): 1.6
The level of expressed mRNA in the presence of chemical substance/The level of expressed mRNA in the absence of chemical substance (yeast gene YDR019C): 1.4
level of expressed mRNA in the presence/in the absence of chemical substance (yeast gene YDR050C): 1.6
level of expressed mRNA in the presence/in the absence of chemical substance (yeast gene YDR073W): 1.7
level of expressed mRNA in the presence/in the absence of chemical substance (yeast gene YDR123C): 1.2
level of expressed mRNA in the presence/in the absence of chemical substance (yeast gene YDR178W): 2.0
level of expressed mRNA in the presence/in the absence of chemical substance (yeast gene YDR277C): 1.6
level of expressed mRNA in the presence/in the absence of chemical substance (yeast gene YDR284C): 0.8
level of expressed mRNA in the presence/in the absence of chemical substance (yeast gene YDR345C): 0.8
The level of expressed mRNA in the presence of chemical substance/The level of expressed mRNA in the absence of chemical substance (yeast gene YDR380W): 0.8
level of expressed mRNA in the presence/in the absence of chemical substance (yeast gene YDR400W): 1.0
level of expressed mRNA in the presence/in the absence of chemical substance (yeast gene YDR408C): 1.0
level of expressed mRNA in the presence/in the absence of chemical substance (yeast gene YDR483W): 1.1
The level of expressed mRNA in the presence of chemical substance/The level of expressed mRNA in the absence of chemical substance (yeast gene YDR497C): 0.7
The level of expressed mRNA in the presence of chemical substance/The level of expressed mRNA in the absence of chemical substance (yeast gene YDR502C): 1.2
The level of expressed mRNA in the presence of chemical substance/The level of expressed mRNA in the absence of chemical substance (yeast gene YDR516C): 1.2
level of expressed mRNA in the presence/in the absence of chemical substance (yeast gene YEL063C): 0.7
level of expressed mRNA in the presence/in the absence of chemical substance (yeast gene YER015W): 0.7
The level of expressed mRNA in the presence of chemical substance/The level of expressed mRNA in the absence of chemical substance (yeast gene YER026C): 0.8
The level of expressed mRNA in the presence of chemical substance/The level of expressed mRNA in the absence of chemical substance (yeast gene YER053C): 1.6
The level of expressed mRNA in the presence of chemical substance/The level of expressed mRNA in the absence of chemical substance (yeast gene YER069W): 1.3
level of expressed mRNA in the presence/in the absence of chemical substance (yeast gene YER081W): 1.6
The level of expressed mRNA in the presence of chemical substance/The level of expressed mRNA in the absence of chemical substance (yeast gene YER096W): 1.1
level of expressed mRNA in the presence/in the absence of chemical substance (yeast gene YER120W): 0.9
The level of expressed mRNA in the presence of chemical substance/The level of expressed mRNA in the absence of chemical substance (yeast gene YER178W): 0.8
level of expressed mRNA in the presence/in the absence of chemical substance (yeast gene YFL011W): 1.2
The level of expressed mRNA in the presence of chemical substance/The level of expressed mRNA in the absence of chemical substance (yeast gene YFL014W): 3.4
The level of expressed mRNA in the presence of chemical substance/The level of expressed mRNA in the absence of chemical substance (yeast gene YFL030W): 1.6
The level of expressed mRNA in the presence of chemical substance/The level of expressed mRNA in the absence of chemical substance (yeast gene YFL031W): 0.5
The level of expressed mRNA in the presence of chemical substance/The level of expressed mRNA in the absence of chemical substance (yeast gene YFL056C): 19.0
The level of expressed mRNA in the presence of chemical substance/The level of expressed mRNA in the absence of chemical substance (yeast gene YFL057C): 20.9
The level of expressed mRNA in the presence of chemical substance/The level of expressed mRNA in the absence of chemical substance (yeast gene YFR047C): 1.3
level of expressed mRNA in the presence/in the absence of chemical substance (yeast gene YGL012W): 1.0
The level of expressed mRNA in the presence of chemical substance/The level of expressed mRNA in the absence of chemical substance (yeast gene YGL022W): 0.5
level of expressed mRNA in the presence/in the absence of chemical substance (yeast gene YGL115W): 0.9
The level of expressed mRNA in the presence of chemical substance/The level of expressed mRNA in the absence of chemical substance (yeast gene YGL126W): 0.6
level of expressed mRNA in the presence/in the absence of chemical substance (yeast gene YGL205W): 0.9
The level of expressed mRNA in the presence of chemical substance/The level of expressed mRNA in the absence of chemical substance (yeast gene YGL209W): 1.2
The level of expressed mRNA in the presence of chemical substance/The level of expressed mRNA in the absence of chemical substance (yeast gene YGL248W): 1.3
The level of expressed mRNA in the presence of chemical substance/The level of expressed mRNA in the absence of chemical substance (yeast gene YGR037C): 1.0
The level of expressed mRNA in the presence of chemical substance/The level of expressed mRNA in the absence of chemical substance (yeast gene YGR055W): 2.5
level of expressed mRNA in the presence/in the absence of chemical substance (yeast gene YGR096W): 1.5
level of expressed mRNA in the presence/in the absence of chemical substance (yeast gene YGR191W): 0.8
The level of expressed mRNA in the presence of chemical substance/The level of expressed mRNA in the absence of chemical substance (yeast gene YGR194C): 0.9
level of expressed mRNA in the presence/in the absence of chemical substance (yeast gene YGR204W): 0.5
The level of expressed mRNA in the presence of chemical substance/The level of expressed mRNA in the absence of chemical substance (yeast gene YGR256W): 1.2
The level of expressed mRNA in the presence of chemical substance/The level of expressed mRNA in the absence of chemical substance (yeast gene YGR282C): 1.3
level of expressed mRNA in the presence/in the absence of chemical substance (yeast gene YGR288W): 0.9
level of expressed mRNA in the presence/in the absence of chemical substance (yeast gene YHR025W): 0.6
The level of expressed mRNA in the presence of chemical substance/The level of expressed mRNA in the absence of chemical substance (yeast gene YHR111W): 1.4
level of expressed mRNA in the presence/in the absence of chemical substance (yeast gene YHR123W): 0.7
The level of expressed mRNA in the presence of chemical substance/The level of expressed mRNA in the absence of chemical substance (yeast gene YHR137W): 0.7
The level of expressed mRNA in the presence of chemical substance/The level of expressed mRNA in the absence of chemical substance (yeast gene YHR174W): 1.1
The level of expressed mRNA in the presence of chemical substance/The level of expressed mRNA in the absence of chemical substance (yeast gene YHR176W): 1.8
level of expressed mRNA in the presence/in the absence of chemical substance (yeast gene YHR210C): 1.3
level of expressed mRNA in the presence/in the absence of chemical substance (yeast gene YIL006W): 1.0
The level of expressed mRNA in the presence of chemical substance/The level of expressed mRNA in the absence of chemical substance (yeast gene YIL045W): 1.7
The level of expressed mRNA in the presence of chemical substance/The level of expressed mRNA in the absence of chemical substance (yeast gene YIL107C): 1.5
The level of expressed mRNA in the presence of chemical substance/The level of expressed mRNA in the absence of chemical substance (yeast gene YIL154C): 0.8
The level of expressed mRNA in the presence of chemical substance/The level of expressed mRNA in the absence of chemical substance (yeast gene YIL155C): 1.0
The level of expressed mRNA in the presence of chemical substance/The level of expressed mRNA in the absence of chemical substance (yeast gene YIR034C): 1.2
The level of expressed mRNA in the presence of chemical substance/The level of expressed mRNA in the absence of chemical substance (yeast gene YIR036C): 1.0
The level of expressed mRNA in the presence of chemical substance/The level of expressed mRNA in the absence of chemical substance (yeast gene YJL031C): 1.6
The level of expressed mRNA in the presence of chemical substance/The level of expressed mRNA in the absence of chemical substance (yeast gene YJL068C): 1.2
The level of expressed mRNA in the presence of chemical substance/The level of expressed mRNA in the absence of chemical substance (yeast gene YJL088W): 0.9
The level of expressed mRNA in the presence of chemical substance/The level of expressed mRNA in the absence of chemical substance (yeast gene YJL099W): 1.2
level of expressed mRNA in the presence/in the absence of chemical substance (yeast gene YJL121C): 1.0
level of expressed mRNA in the presence/in the absence of chemical substance (yeast gene YJL167W): 0.9
The level of expressed mRNA in the presence of chemical substance/The level of expressed mRNA in the absence of chemical substance (yeast gene YJL172W): 0.8
level of expressed mRNA in the presence/in the absence of chemical substance (yeast gene YJL216C): 0.8
The level of expressed mRNA in the presence of chemical substance/The level of expressed mRNA in the absence of chemical substance (yeast gene YJL219W): 1.2
level of expressed mRNA in the presence/in the absence of chemical substance (yeast gene YJR077C): 1.1
The level of expressed mRNA in the presence of chemical substance/The level of expressed mRNA in the absence of chemical substance (yeast gene YJR137C): 2.7
level of expressed mRNA in the presence/in the absence of chemical substance (yeast gene YJR143C): 0.6
The level of expressed mRNA in the presence of chemical substance/The level of expressed mRNA in the absence of chemical substance (yeast gene YJR148W): 0.7
